Assay results from ChEMBL document CHEMBL1201862, “PubChem BioAssay data set” (2004).
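Assay format: 96-well plates, 48-hour exposure. At the GI50, growth is halved.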 Active and inactive are the calls of the source. No stated cut-off is given here; in the data, active = GI50 up to about 1.1 µM and inactive = higher.

Assays:
Experiment in all cases: growth of human tumour cells (NCI), 48 h
DMS-114 = tested on: DMS-114
SNB-78 = tested on: SNB-78
HOP-18 = tested on: HOP-18
DLD-1 = tested on: DLD-1
XF498 = tested on: XF498
M19-MEL = tested on: M19-MEL
LXFL 529 = tested on: LXFL 529
DMS-273 = tested on: DMS-273
RXF 631 = tested on: RXF 631

Compound | GI50 (DMS-114) | GI50 (SNB-78) | GI50 (HOP-18) | GI50 (DLD-1) | GI50 (XF498) | GI50 (M19-MEL) | GI50 (LXFL 529) | GI50 (DMS-273) | GI50 (RXF 631)
O=C(O)c1ccc([I+]c2ccccc2)cc1 | > 100 µM (inactive) | > 100 µM (inactive) | > 100 µM (inactive) | > 100 µM (inactive) | > 100 µM (inactive) | > 100 µM (inactive) | > 100 µM (inactive) | > 100 µM (inactive) | > 100 µM (inactive)
CCOc1ccc(/N=N/c2ccc3oc(=O)c(/C(C)=N/NC(=O)CC(=O)Nc4cccc(OC)c4)cc3c2)cc1 | 14.3 µM (inactive) | 23.6 µM (inactive) | 17.1 µM (inactive) | 13.8 µM (inactive) | 17.5 µM (inactive) | 23.8 µM (inactive) | 11 µM (inactive) | 24.8 µM (inactive) | –
CCOP(=O)(Cc1ccc(CP(=O)(OCC)OCC)n1C)OCC | > 100 µM (inactive) | – | 75 µM (inactive) | > 100 µM (inactive) | – | > 100 µM (inactive) | > 100 µM (inactive) | > 100 µM (inactive) | > 100 µM (inactive)
O=S(=O)(OI(OI(OS(=O)(=O)C(F)(F)F)c1ccccc1)c1ccccc1)C(F)(F)F | 5.18 µM (inactive) | 50.6 µM (inactive) | – | 58.9 µM (inactive) | – | 40.7 µM (inactive) | 26.1 µM (inactive) | 23.7 µM (inactive) | –
Cc1ccc(C2=CC(=O)c3ccccc3C2=O)n1-c1ccccc1 | 24.6 µM (inactive) | > 100 µM (inactive) | > 100 µM (inactive) | > 100 µM (inactive) | 48.1 µM (inactive) | > 100 µM (inactive) | 72.4 µM (inactive) | > 100 µM (inactive) | –
CN(C)c1ccc2c(NCCCCCCNc3ccnc4cc(N(C)C)ccc34)ccnc2c1 | 6.75 µM (inactive) | 4.79 µM (inactive) | – | 43.7 µM (inactive) | 2.79 µM (inactive) | 13.7 µM (inactive) | – | 4.03 µM (inactive) | 51.4 µM (inactive)
CN(C)/N=N/c1ccc(S(N)(=O)=O)cc1 | > 100 µM (inactive) | – | > 100 µM (inactive) | > 100 µM (inactive) | > 100 µM (inactive) | > 100 µM (inactive) | – | > 100 µM (inactive) | –
COc1c(C(=O)c2ccc([N+](=O)[O-])cc2)cc(C(C)(C)C)cc1C(C)(C)C | 22.1 µM (inactive) | 46.6 µM (inactive) | > 100 µM (inactive) | 54 µM (inactive) | 22.2 µM (inactive) | 30.1 µM (inactive) | 31.6 µM (inactive) | 30.2 µM (inactive) | –
COc1cc2ccn3c4cc(OC)c(OC)cc4cc3c2cc1OC | 50.6 µM (inactive) | > 100 µM (inactive) | – | > 100 µM (inactive) | 7.16 µM (inactive) | > 100 µM (inactive) | 78.7 µM (inactive) | – | –
CCCCC1(C)C=C/C(=C2/C(=O)O/C(=C\C(=O)O)C2=O)O1 (configuration not stated) | – | > 100 µM (inactive) | > 100 µM (inactive) | – | > 100 µM (inactive) | > 100 µM (inactive) | > 100 µM (inactive) | > 100 µM (inactive) | > 100 µM (inactive)
COc1cc(OC(=O)c2ccccc2)cc2c1C(=O)C=CC2=O | 10.9 µM (inactive) | 20.5 µM (inactive) | 16.6 µM (inactive) | 15.4 µM (inactive) | 17.6 µM (inactive) | 11 µM (inactive) | 12.7 µM (inactive) | 21.8 µM (inactive) | 20 µM (inactive)
O=[N+]([O-])c1cccc(C2ON2C2CCCCC2)c1 (configuration not stated) | 19.1 µM (inactive) | 27.4 µM (inactive) | 30.8 µM (inactive) | 12 µM (inactive) | – | 19.6 µM (inactive) | 20.7 µM (inactive) | 18.4 µM (inactive) | –
CCOC(=O)/C(C#N)=C\C=C1/C=CN=C2NCCN21 | > 100 µM (inactive) | > 100 µM (inactive) | > 100 µM (inactive) | > 100 µM (inactive) | > 100 µM (inactive) | > 100 µM (inactive) | > 100 µM (inactive) | > 100 µM (inactive) | –
CC(C)(C)[Si](C)(C)O/N=C\c1ccc(O[Si](C)(C)C(C)(C)C)cc1 | 25.9 µM (inactive) | > 100 µM (inactive) | > 100 µM (inactive) | > 100 µM (inactive) | 31.8 µM (inactive) | 41.3 µM (inactive) | 84.9 µM (inactive) | > 100 µM (inactive) | 24 µM (inactive)
C[C@@H]1OC(=O)N2CCCC(=C3SCCCS3)C12 (some centres not stated) | 25.1 µM (inactive) | > 100 µM (inactive) | 52.5 µM (inactive) | – | 36.6 µM (inactive) | 45.6 µM (inactive) | 44.8 µM (inactive) | 97.7 µM (inactive) | –
Cc1cccc(C)c1CO | > 100 µM (inactive) | > 100 µM (inactive) | – | > 100 µM (inactive) | > 100 µM (inactive) | > 100 µM (inactive) | > 100 µM (inactive) | > 100 µM (inactive) | > 100 µM (inactive)
OCc1c[te]c(-c2ccccc2)c1 | 26.8 µM (inactive) | > 100 µM (inactive) | – | 37.2 µM (inactive) | 0.56 µM (active) | 33.9 µM (inactive) | > 100 µM (inactive) | 51.4 µM (inactive) | 55.6 µM (inactive)
C(=N\Nc1ccccc1)/c1nc2ccccc2nc1/C=N/Nc1ccccc1 | – | 20.7 µM (inactive) | – | 11.3 µM (inactive) | – | 20.7 µM (inactive) | 11 µM (inactive) | – | 13.6 µM (inactive)
COc1cc(C2C(C(=O)Nc3ccccc3)=C(C)NC(C)=C2C(=O)Nc2ccccc2)ccc1O | 42 µM (inactive) | 53.5 µM (inactive) | 99.3 µM (inactive) | 29.1 µM (inactive) | 34.2 µM (inactive) | 36.2 µM (inactive) | 24.3 µM (inactive) | – | –
O=C1C=CC(=O)c2cc(Sc3ccccc3)c(=O)c(Sc3ccccc3)cc21 | 22.2 µM (inactive) | – | 71.8 µM (inactive) | 56.4 µM (inactive) | 86.3 µM (inactive) | 48.5 µM (inactive) | 26.1 µM (inactive) | > 100 µM (inactive) | –
CCCCCC/C(CC(=O)CCC(=O)NCCc1ccccc1)=N\Nc1ccc([N+](=O)[O-])cc1[N+](=O)[O-] | 20 µM (inactive) | > 100 µM (inactive) | 59.8 µM (inactive) | 63.7 µM (inactive) | – | 54.5 µM (inactive) | 49.3 µM (inactive) | > 100 µM (inactive) | 64.6 µM (inactive)
COC1=CC(C2c3cc4c(cc3[C@@H](Nc3ccc(F)cc3)C3COC(=O)[C@H]23)OCO4)=CC(=O)C1=O (some centres not stated) | – | > 51.9 µM (inactive) | – | 26.2 µM (inactive) | 5.98 µM (inactive) | 15.4 µM (inactive) | 11.6 µM (inactive) | 2.93 µM (inactive) | –
CN(C)c1ccc(-c2cc(O)c3cc4c(cc3n2)OCO4)cc1 | > 100 µM (inactive) | – | – | > 100 µM (inactive) | > 100 µM (inactive) | > 100 µM (inactive) | > 100 µM (inactive) | > 100 µM (inactive) | > 100 µM (inactive)
C=CCC1(CC)C(=O)NC(=O)NC1=O [ETALLOBARBITAL] | – | > 100 µM (inactive) | – | – | – | > 100 µM (inactive) | > 100 µM (inactive) | > 100 µM (inactive) | –
